Values quoted from earlier work as cited in US8551975B1, “Hyaluronic acid in soft gel form” (Soft Gel Technologies, Inc., priority 2001, dated 2013).

Hyaluronic Acid [HA]
half-life in the epidermis (epidermis, endogenous HA): less than one day | half-life of an HA molecule (normally, endogenous HA synthesized and catabolized in tissues): 2-3 weeks
